Among the data in patent US8263621B2, “Tartrate derivatives for use as coagulation factor IXa inhibitors” (Sanofi, priority 2006, dated 2012) are IC50 values, retold here.

SMILES strings stand for the structures.

T1 sequence (P00740 227-461 limits assumed): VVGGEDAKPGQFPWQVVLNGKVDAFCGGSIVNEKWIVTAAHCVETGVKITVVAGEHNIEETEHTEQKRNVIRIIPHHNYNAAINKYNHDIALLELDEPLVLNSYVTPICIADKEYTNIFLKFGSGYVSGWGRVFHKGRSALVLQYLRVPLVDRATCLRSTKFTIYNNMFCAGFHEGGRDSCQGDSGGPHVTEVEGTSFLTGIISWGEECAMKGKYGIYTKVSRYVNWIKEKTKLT
T1 sequence (P00740 47-191 partner limits assumed): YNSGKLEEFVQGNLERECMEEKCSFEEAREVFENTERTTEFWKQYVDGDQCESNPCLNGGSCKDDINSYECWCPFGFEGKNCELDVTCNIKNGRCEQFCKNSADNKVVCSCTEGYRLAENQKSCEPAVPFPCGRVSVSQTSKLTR

The test has as its target T1, factor IXa (Homo sapiens, UniProt P00740).
T1 construct: Factor IX is a proenzyme; purchased Calbiochem (Merck KGaA) 233290
In words: Factor IXa enzyme assay (inhibition of enzymatic activity of FIXa, substrate PEFA 3107). Format: biochemical. The following applies: 277 nM factor IXa, pH 7.4, 15 min preincubation at room temperature, read at 405 nm. Here is the method: The prepared substances from the examples were tested for inhibition of the enzymatic activity of FIXa using the substrate PEFA 3107 (Pentapharm/Loxo; via S. Black GmbH, Baumstrasse 41, 47198 Duisburg, Germany; Pr. No. 095-20) and factor IXa (Calbiochem, Merck KGaA markets Calbiochem in Germany, Life Science & Analytics, 64293 Darmstadt; Pr. No. 233290). In this method, 28 μl of test buffer (50 mM α,α,α-tris(hydroxymethyl)methylamine (TRIS), 100 mM NaCl, 5 mM CaCl2, 0.1% bovine serum albumin, pH 7.4) and 10 μl of factor IXa (277 nM final concentration in the test batch) were added to 2 μl of 10 mM dimethyl sulfoxide solution of the respective test substance, and the mixture was incubated for 15 minutes at room temperature in a 96 half-well microtiter plate. The enzyme reaction was started by addition of 10 μl of substrate (1 mM stock solution in water). The time course of the reaction was monitored at 405 nm in a microtiter plate reader (SpectraMax plus 384; Molecular Devices) for 15 minutes. The IC50 was calculated from the averaged values (duplicate determination) of a dilution series of the test substance with the aid of the software Grafit 4 (Erithacus Software, UK). The inhibition constants (Ki) were calculated according to the Cheng Prusoff equation Ki=IC50/(1+(S/Km), where S=concentration of the test substrate in the test and Km=Michaelis-Menten constant.
One may read the IC50 as the midpoint of a concentration-inhibition curve. A higher IC50 goes with lower potency. Turning to `Cc1ccc(NC(=O)[C@H](O)[C@@H](O)C(=O)Nc2ccc3c(N)nccc3c2)cc1` [Example 1, (2R,3R)—N-(1-Aminoisoquinolin-6-yl)-2,3-dihydroxy-N′-p-tolyltartaramide; compound with trifluoroacetic acid], the IC50 came to 0.22 µM.

Take `Cc1ccc(NC(=O)[C@H](O)[C@@H](O)C(=O)Nc2ccc(C(=N)N)cc2)cc1` [Example 5, (2R,3R)—N-(4-Carbamimidoylphenyl)-2,3-dihydroxy-N′-p-tolylsuccinamide; compound with trifluoroacetic acid]: half-maximal inhibition (IC50) required 0.17 µM.

With `Nc1nc2ccc(NC(=O)[C@H](O)[C@@H](O)C(=O)Nc3ccc(Oc4ccccc4)cc3)cc2[nH]1` [Example 12, (2R,3R)—N-(2-amino-3H-benzimidazol-5-yl)-2,3-dihydroxy-N′-(4-phenoxyphenyl)-tartaramide], it took 0.37 µM to reach half-maximal inhibition (IC50).
